Where two headings read alike, the source gives them in different places.
Molecular target: T1, NPC1 (Cricetulus griseus, UniProt Q9JLG3)
T1 construct: CHO-7 cells in the medium are deprived of cholesterol to induce the LDL receptors biosynthesis; endogenous in cells; host or cells: CHO-7 cells
T1 sequence (Q9JLG3 23-1277): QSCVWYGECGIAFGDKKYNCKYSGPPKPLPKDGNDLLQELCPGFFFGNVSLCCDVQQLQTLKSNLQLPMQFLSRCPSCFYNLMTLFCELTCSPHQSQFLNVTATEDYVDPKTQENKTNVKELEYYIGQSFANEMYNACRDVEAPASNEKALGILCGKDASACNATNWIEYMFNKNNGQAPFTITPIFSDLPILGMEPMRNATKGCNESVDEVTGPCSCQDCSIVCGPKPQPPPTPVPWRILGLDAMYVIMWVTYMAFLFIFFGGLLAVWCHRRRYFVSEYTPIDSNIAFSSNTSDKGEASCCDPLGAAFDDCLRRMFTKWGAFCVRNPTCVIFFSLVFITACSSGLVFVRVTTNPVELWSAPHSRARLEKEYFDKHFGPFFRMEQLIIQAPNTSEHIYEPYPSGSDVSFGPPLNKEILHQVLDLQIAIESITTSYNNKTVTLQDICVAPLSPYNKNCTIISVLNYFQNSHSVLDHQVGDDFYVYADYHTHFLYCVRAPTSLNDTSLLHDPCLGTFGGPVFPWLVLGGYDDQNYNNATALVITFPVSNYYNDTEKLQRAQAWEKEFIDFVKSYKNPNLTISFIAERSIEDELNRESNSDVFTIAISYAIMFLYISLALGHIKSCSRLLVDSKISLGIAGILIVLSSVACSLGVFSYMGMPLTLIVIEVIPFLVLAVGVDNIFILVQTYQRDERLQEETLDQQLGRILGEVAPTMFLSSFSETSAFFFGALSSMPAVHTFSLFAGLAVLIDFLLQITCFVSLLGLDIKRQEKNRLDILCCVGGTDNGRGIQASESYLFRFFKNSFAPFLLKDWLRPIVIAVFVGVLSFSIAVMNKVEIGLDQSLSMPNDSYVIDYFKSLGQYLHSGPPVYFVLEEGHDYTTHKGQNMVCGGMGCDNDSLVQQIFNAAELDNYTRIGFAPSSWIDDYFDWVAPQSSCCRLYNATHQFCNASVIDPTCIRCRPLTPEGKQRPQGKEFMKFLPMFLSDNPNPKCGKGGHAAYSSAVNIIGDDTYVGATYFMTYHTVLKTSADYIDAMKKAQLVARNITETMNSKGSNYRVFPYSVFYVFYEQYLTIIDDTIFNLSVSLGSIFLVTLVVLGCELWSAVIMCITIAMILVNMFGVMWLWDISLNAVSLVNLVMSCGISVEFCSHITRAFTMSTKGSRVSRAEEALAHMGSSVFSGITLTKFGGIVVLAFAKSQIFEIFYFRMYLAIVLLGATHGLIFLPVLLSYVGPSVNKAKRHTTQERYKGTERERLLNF
Experiment: Cholesterol re-esterification (ACAT) assay measuring NPC1-mediated export of cholesterol from lysosomes in CHO-7 cells
Assay type: cell-based
Settings: for cholesteryl [14C] oleate formed, Repeat 1 / cholesteryl [14C] oleate formed, Repeat 2: Fig. 2 source data; for cholesteryl [14C] oleate formed, Repeat 3 / cholesteryl [14C] oleate formed, Repeat 4: Supplementary Fig. 3 source data
From the text: Itraconazole has three chiral centers (Supplementary Fig. 2a). The pharmaceutical form contains four cis-stereoisomers in a 1:1:1:1 molar ratio (Supplementary Fig. 2a–d). To determine the activity of the cis-stereoisomers, the individual isomers were isolated and identified based on their optical rotation in chloroform following a previous report (Supplementary Fig. 2e)[26]. Then, they were separately tested in a cholesterol re-esterification assay used to measure NPC1-mediated export of cholesterol from lysosomes. Briefly, CHO-7 cells in the medium are deprived of cholesterol to induce the LDL receptors biosynthesis. The cells are then incubated with fetal calf serum (FCS) that contains LDL. The LDL-derived cholesterol will now be transported by functional NPC1 protein from the lysosome to the endoplasmic reticulum (ER). The acyl-CoA:cholesterol actyltransferase named ACAT can now re-esterify the cholesterol in the ER. Therefore, the cells were pulse-labeled with [^14C] oleate and we can measure the synthesis of cholesteroyl [^14C] oleate to evaluate the activity of NPC1 protein. Using this assay, we tested the ability of various itraconazole to inhibit NPC1 activity.
Fig. 2 ACAT activity of itraconazole and ketoconazole in CHO-7 cells. On day 0, CHO-7 cells were set up in medium A with 5% LPDS at 2.5 × 10^5 cells/well in 6-well dish. On day 2, cells were switched to medium A with 5% LPDS containing 50 µM sodium compactin and 50 µM sodium mevalonate. On day 3 the cells received fresh medium B containing compactin and mevalonate with various concentration compounds in the presence of 10% FCS containing lipoproteins. After incubation for 4 h at 37 °C, each cell monolayer was pulse-labeled for 2 h with 0.1 mM sodium [^14C] oleate (5792 dpm/nmol). The cells were then harvested for measurement of their content of cholesteryl [^14C] oleate and [^14C] triglycerides, as described in Methods. […] Itraconazole mixture, isomer A (Supplementary Fig. 2a), isomer B (Supplementary Fig. 2b) and isomer C (Supplementary Fig. 2c) were added at final concentrations of 0.3 μM. The isomer D (Supplementary Fig. 2d), I-Br and ketoconazole were added at final concentrations of 1 μM. The biological repeats are shown as individual values. Source data are provided as a Source Data file.
On day 0, cells were set up in medium A with 5% LPDS at 2.5 × 10^5 cells/well in six-well dish. On day 2, cells were switched to medium A with 5% LPDS containing 50 µM sodium compactin and 50 µM sodium mevalonate. On day 3 the cells received fresh medium B containing compactin and mevalonate with indicated concentration triazole compounds in the presence of 10% FCS containing lipoproteins. After incubation for 4 h at 37 °C, each cell monolayer was pulse-labeled for 2 h with 0.1 mM sodium [^14C] oleate (5792 dpm/nmol). The cells were then harvested for measurement of their content of cholesteryl [^14C] oleate and [^14C] triglycerides.
The rate of incorporation of [^14C] oleate into cholesteryl [^14C] oleate and [^14C] triglycerides by monolayers of NPC1^−/− cells and CHO-7 cells was measured as described previously. In brief, cells were switched to medium containing LPDS supplemented with compactin and mevolonate at 16 h before the experiments. On the day of the experiment, cells were incubated for 4 h with fresh medium containing FCS as a source of cholesterol-containing lipoproteins. Cells were then pulse –labeled for 2 h with 0.1 mM sodium [^14C] oleate. Cells were then washed, and the lipids were extracted in hexane:isopropanol (3:2, vol:vol), separated on a silica gel G thin-layer chromatogram (developed in heptane:ethylether:acetic acid, 90:30:1), and quantified by scintillation counting with the use of an internal standard for recovery.

Row | Structure (SMILES) | cholesteryl [14C] oleate formed, Repeat 1 (0.01 uM compound) | cholesteryl [14C] oleate formed, Repeat 2 (0.01 uM compound) | cholesteryl [14C] oleate formed, Repeat 3 (0.01 uM compound) | cholesteryl [14C] oleate formed, Repeat 4 (0.01 uM compound) | cholesteryl [14C] oleate formed, Repeat 1 (0.03 uM compound) | cholesteryl [14C] oleate formed, Repeat 2 (0.03 uM compound) | cholesteryl [14C] oleate formed, Repeat 3 (0.03 uM compound) | cholesteryl [14C] oleate formed, Repeat 4 (0.03 uM compound) | cholesteryl [14C] oleate formed, Repeat 1 (0.06 uM compound) | cholesteryl [14C] oleate formed, Repeat 2 (0.06 uM compound) | cholesteryl [14C] oleate formed, Repeat 3 (0.06 uM compound) | cholesteryl [14C] oleate formed, Repeat 4 (0.06 uM compound) | cholesteryl [14C] oleate formed, Repeat 1 (0.1 uM compound) | cholesteryl [14C] oleate formed, Repeat 2 (0.1 uM compound) | cholesteryl [14C] oleate formed, Repeat 3 (0.1 uM compound) | cholesteryl [14C] oleate formed, Repeat 4 (0.1 uM compound) | cholesteryl [14C] oleate formed, Repeat 1 (0.3 uM compound) | cholesteryl [14C] oleate formed, Repeat 2 (0.3 uM compound) | cholesteryl [14C] oleate formed, Repeat 3 (0.3 uM compound) | cholesteryl [14C] oleate formed, Repeat 4 (0.3 uM compound) | further results
1 | CCC(C)n1ncn(-c2ccc(N3CCN(c4ccc(OCC5COC(Cn6cncn6)(c6ccc(Cl)cc6Cl)O5)cc4)CC3)cc2)c1=O (stereo not drawn) [Itra-A] | 3.345 nanomoles formed per hour per milligram cell protein | 3.639 nanomoles formed per hour per milligram cell protein | 4.944 nanomoles formed per hour per milligram cell protein | 4.771 nanomoles formed per hour per milligram cell protein | 2.117 nanomoles formed per hour per milligram cell protein | 3.138 nanomoles formed per hour per milligram cell protein | 2.06 nanomoles formed per hour per milligram cell protein | 3.899 nanomoles formed per hour per milligram cell protein | 1.347 nanomoles formed per hour per milligram cell protein | 1.367 nanomoles formed per hour per milligram cell protein | 2.476 nanomoles formed per hour per milligram cell protein | 3.208 nanomoles formed per hour per milligram cell protein | 0.6494 nanomoles formed per hour per milligram cell protein | 0.4243 nanomoles formed per hour per milligram cell protein | 0.5346 nanomoles formed per hour per milligram cell protein | 0.7537 nanomoles formed per hour per milligram cell protein | 0.1828 nanomoles formed per hour per milligram cell protein | 0.9513 nanomoles formed per hour per milligram cell protein | 0.009558 nanomoles formed per hour per milligram cell protein | 0.01486 nanomoles formed per hour per milligram cell protein | IC50 (read-out: IC50 (concentration at which each compound inhibited cholesterol esterification by 50%), 10% FCS, 4 h then 2 h [14C] oleate pulse): 0.02 µM
2 | CCC(C)n1ncn(-c2ccc(N3CCN(c4ccc(OCC5COC(Cn6cncn6)(c6ccc(Cl)cc6Cl)O5)cc4)CC3)cc2)c1=O (stereo not drawn) [Itra-C] | 2.751 nanomoles formed per hour per milligram cell protein | 4.364 nanomoles formed per hour per milligram cell protein | 5.964 nanomoles formed per hour per milligram cell protein | 6.001 nanomoles formed per hour per milligram cell protein | 3.794 nanomoles formed per hour per milligram cell protein | 3.288 nanomoles formed per hour per milligram cell protein | 5.048 nanomoles formed per hour per milligram cell protein | 4.017 nanomoles formed per hour per milligram cell protein | 2.064 nanomoles formed per hour per milligram cell protein | 2.2038 nanomoles formed per hour per milligram cell protein | 2.593 nanomoles formed per hour per milligram cell protein | 3.086 nanomoles formed per hour per milligram cell protein | 1.063 nanomoles formed per hour per milligram cell protein | 0.9711 nanomoles formed per hour per milligram cell protein | 0.7465 nanomoles formed per hour per milligram cell protein | 0.811 nanomoles formed per hour per milligram cell protein | 0.4254 nanomoles formed per hour per milligram cell protein | 0.7413 nanomoles formed per hour per milligram cell protein | 0.1456 nanomoles formed per hour per milligram cell protein | 0.04925 nanomoles formed per hour per milligram cell protein | IC50 (IC50 (concentration at which each compound inhibited cholesterol esterification by 50%), 10% FCS, 4 h then 2 h [14C] oleate pulse): 0.035 µM
